# Data: patent US20230117034A1, “PYRAZOLOTRIAZINES” (Bayer Aktiengesellschaft, priority 2019, published 2023)
# Columns and labels:
# [1] = tested on: BRCA1 mRNA expression in MDA-MB-231 cells; assay: qRT-PCR assay: BRCA1 mRNA expression in MDA-MB-231; assay type: cell-based, human; conditions: Homo sapiens, MDA-MB-231, Inhibition of BRCA1 mRNA expression in MDA-MB-231 cells; median; read-out: RTqPCR-MDA-MB-231, IC50, BRCA1 (median)
# Outline: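 Cells were seeded at 200,000 cells/well, left 24 h, then exposed continuously to test substances for 24 h. Total RNA (600 ng) was reverse-transcribed to cDNA and amplified by qPCR, and transcript levels were normalised to GAPDH housekeeping expression.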
# [2] = tested on: MDA-MB-231, human breast cancer cells; assay: Proliferation assay MDA-MB-231 (crystal violet, 4 days); assay type: cell-based; conditions: Homo sapiens, MDA-MB-231, 96 h, MDA-MB-231 cells, median, read-out: Prolif-MDA MB-231, IC50-[mol/l] (median)
# Outline: (§1)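 Cells seeded at 4,000/well in medium with 10% FCS; after 24 h, compounds added at 0.01-10 µmol/L (0.1% DMSO) for 4 days. Glutaraldehyde-fixed, crystal violet-stained, absorbance at 595 nm normalized to zero-point plate (0%) and untreated cells (100%); IC50 by 4-parameter fit.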
# [3] = tested on: CAL-120, human breast adenocarcinoma cells; assay: Proliferation assay CAL-120 (crystal violet, 4 days); assay type: cell-based; conditions: Homo sapiens, CAL-120, 96 h, CAL-120 cells, median, read-out: Prolif-CAL-120, IC50-[mol/l] (median)
# Outline: as §1
# [4] = target: T1, CDK12 (nuclear staining in CAL-120 cells) (Homo sapiens, UniProt Q9NYV4); assay: CDK12 nuclear protein level: immunofluorescence/high content analysis (CAL-120); assay type: cell-based; conditions: for DC50: CAL-120 cells, 24 h, immunofluorescence, 50% reduction of nuclear CDK12 staining intensity, median, read-out: CDK12 degradation IF, DC50- [mol/l] (median); for (IC50 CDK12 high ATP) to (Degradation DC50 CDK12) ratio: ratio of IC50 CDK12 high ATP kinase assay to DC50 CDK12 degradation (IF, CAL-120)
# T1 construct: endogenous in cells; host or cells: CAL-120 human breast cancer cells (DSMZ ACC 459)
# Outline: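 CAL-120 cells were treated with compound for 24 h at 37 °C, fixed with PFA and immunostained for CDK12. Nuclear CDK12 intensity was quantified by automated image analysis and normalized to DMSO and control. DC50 is the concentration giving 50% reduction of nuclear staining.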
# [5] = target: T2, CYCLIN K (nuclear staining in CAL-120 cells) (Homo sapiens, UniProt O75909); assay: CYCLIN K nuclear protein level: immunofluorescence high content analysis (CAL-120); assay type: cell-based; conditions: 24 h, 50% reduction of nuclear CCNK staining intensity, median, read-out: CYCLIN K degradation IF, DC50-[mol/l] (median)
# T2 construct: endogenous in cells; host or cells: CAL-120 human breast cancer cells (DSMZ ACC 459)
# Outline: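 CAL-120 breast cancer cells treated in dose-response for 24 h at 37 °C, PFA-fixed and immunostained for cyclin K with Hoechst counterstain. Confocal imaging quantified nuclear intensity; DC50 is the concentration giving 50% reduction of nuclear CCNK staining, normalized to DMSO and control.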
# T2 sequence (O75909 whole entry): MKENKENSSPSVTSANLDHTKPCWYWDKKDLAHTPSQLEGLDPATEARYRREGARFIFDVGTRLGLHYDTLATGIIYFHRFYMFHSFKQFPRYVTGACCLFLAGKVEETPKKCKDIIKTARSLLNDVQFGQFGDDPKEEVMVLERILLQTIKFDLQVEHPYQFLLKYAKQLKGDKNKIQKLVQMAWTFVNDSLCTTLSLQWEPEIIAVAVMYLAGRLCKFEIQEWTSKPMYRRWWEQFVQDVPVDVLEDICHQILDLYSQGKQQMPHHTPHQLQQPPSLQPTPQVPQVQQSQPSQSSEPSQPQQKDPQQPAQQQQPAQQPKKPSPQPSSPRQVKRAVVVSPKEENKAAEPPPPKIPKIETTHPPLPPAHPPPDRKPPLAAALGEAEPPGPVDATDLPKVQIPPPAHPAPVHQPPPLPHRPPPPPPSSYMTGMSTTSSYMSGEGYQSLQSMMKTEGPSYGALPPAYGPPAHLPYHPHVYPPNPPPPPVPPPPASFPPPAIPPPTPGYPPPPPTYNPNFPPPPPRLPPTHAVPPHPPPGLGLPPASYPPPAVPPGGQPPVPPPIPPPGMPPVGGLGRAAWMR
# T2 sequence (Q9NYV4 whole entry partner): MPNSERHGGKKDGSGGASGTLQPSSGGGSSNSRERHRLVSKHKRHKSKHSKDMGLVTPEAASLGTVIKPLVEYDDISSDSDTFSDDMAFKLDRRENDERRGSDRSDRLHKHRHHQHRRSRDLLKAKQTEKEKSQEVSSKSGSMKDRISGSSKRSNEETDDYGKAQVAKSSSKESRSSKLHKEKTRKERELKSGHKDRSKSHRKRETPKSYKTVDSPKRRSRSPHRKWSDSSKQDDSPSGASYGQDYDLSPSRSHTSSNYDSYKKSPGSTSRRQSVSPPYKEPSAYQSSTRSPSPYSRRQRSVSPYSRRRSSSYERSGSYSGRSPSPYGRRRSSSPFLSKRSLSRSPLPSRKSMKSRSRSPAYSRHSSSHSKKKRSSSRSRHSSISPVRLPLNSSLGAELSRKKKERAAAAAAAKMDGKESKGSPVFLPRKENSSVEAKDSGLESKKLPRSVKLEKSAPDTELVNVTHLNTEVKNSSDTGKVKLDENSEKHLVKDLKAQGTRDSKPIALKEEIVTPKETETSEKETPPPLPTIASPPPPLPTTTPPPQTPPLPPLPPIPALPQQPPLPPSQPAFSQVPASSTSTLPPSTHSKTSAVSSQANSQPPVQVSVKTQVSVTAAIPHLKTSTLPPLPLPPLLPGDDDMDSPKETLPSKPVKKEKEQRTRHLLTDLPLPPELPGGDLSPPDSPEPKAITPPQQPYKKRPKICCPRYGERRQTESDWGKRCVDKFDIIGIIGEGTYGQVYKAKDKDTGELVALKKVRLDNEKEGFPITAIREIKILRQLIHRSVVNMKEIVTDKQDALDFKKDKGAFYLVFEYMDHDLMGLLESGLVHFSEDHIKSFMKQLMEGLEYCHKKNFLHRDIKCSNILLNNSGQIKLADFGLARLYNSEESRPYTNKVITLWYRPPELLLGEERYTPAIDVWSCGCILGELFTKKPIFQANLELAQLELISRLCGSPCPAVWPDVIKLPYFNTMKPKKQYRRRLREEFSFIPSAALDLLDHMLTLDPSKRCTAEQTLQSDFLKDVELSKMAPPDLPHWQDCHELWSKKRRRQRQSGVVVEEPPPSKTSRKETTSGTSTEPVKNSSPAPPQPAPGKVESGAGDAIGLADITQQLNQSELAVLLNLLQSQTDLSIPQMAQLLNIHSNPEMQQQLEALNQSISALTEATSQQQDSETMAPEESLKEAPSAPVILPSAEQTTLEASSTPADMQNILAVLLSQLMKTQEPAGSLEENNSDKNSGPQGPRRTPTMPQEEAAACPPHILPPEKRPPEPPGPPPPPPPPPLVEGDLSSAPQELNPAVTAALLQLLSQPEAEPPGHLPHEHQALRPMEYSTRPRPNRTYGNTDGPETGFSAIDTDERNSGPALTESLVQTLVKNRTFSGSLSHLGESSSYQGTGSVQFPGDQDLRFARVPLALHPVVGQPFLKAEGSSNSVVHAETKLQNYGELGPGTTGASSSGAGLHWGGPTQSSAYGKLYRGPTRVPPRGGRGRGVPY
# T1 sequence (Q9NYV4 whole entry): as the sequence (Q9NYV4 whole entry partner) above
# T1 sequence (O75909 whole entry partner): as the sequence (O75909 whole entry) above
IC50 [1],IC50 [2],IC50 [3],DC50 [4],(IC50 CDK12 high ATP) to (Degradation DC50 CDK12) ratio [4],DC50 [5],Compound
3.4 nM,5.74 nM,1.76 nM,1.25 nM,324,0.587 nM,"N#Cc1cccc(-c2c[nH]c(CNc3nc(N4CCOCC4)nc4c(Br)cnn34)n2)c1 [Example 42, 3-[2-({[8-bromo-2-(morpholin-4-yl)pyrazolo[1,5-a][1,3,5]triazin-4-yl]amino}methyl)-1H-imidazol-4-yl]benzonitrile]"
1.52 nM,,3.14 nM,1.55 nM,669,0.189 nM,"C[C@H]1COCCN1c1nc(NCc2nc3ccccc3[nH]2)n2ncc(Br)c2n1 [Example 57, N-[(1H-benzimidazol-2-yl)methyl]-8-bromo-2-[(3S)-3-methylmorpholin-4-yl]pyrazolo[1,5-a][1,3,5]triazin-4-amine]"
49 nM,,56.3 nM,26.1 nM,246,1.66 nM,"CC1(C)CN(c2nc(NCc3nc4ccccc4[nH]3)n3ncc(Br)c3n2)CCO1 [Example 58, N-[(1H-benzimidazol-2-yl)methyl]-8-bromo-2-(2,2-dimethylmorpholin-4-yl)pyrazolo[1,5-a][1,3,5]triazin-4-amine]"
30.5 nM,,12.5 nM,5.26 nM,104,2.85 nM,"OC[C@@H]1CCCCN1c1nc(NCc2nc3ccccc3[nH]2)n2ncc(Br)c2n1 [Example 59, [(2S)-1-(4-{[(1H-benzimidazol-2-yl)methyl]amino}-8-bromopyrazolo[1,5-a][1,3,5]triazin-2-yl)piperidin-2-yl]methanol]"
45.3 nM,,25.7 nM,9.25 nM,202,3.05 nM,"OC[C@H]1CCCCN1c1nc(NCc2nc3ccccc3[nH]2)n2ncc(Br)c2n1 [Example 60, [(2R)-1-(4-{[(1H-benzimidazol-2-yl)methyl]amino}-8-bromopyrazolo[1,5-a][1,3,5]triazin-2-yl)piperidin-2-yl]methanol]"
9.54 nM,30.8 nM,24.3 nM,5.11 nM,>3913,3.59 nM,"COc1ccccc1-c1nnc(CNc2nc(N3CCOCC3)nc3c(Br)cnn23)[nH]1 [Example 61, 8-bromo-N-{[5-(2-methoxyphenyl)-4H-1,2,4-triazol-3-yl]methyl}-2-(morpholin-4-yl)pyrazolo[1,5-a][1,3,5]triazin-4-amine]"
2.55 nM,11.1 nM,4.73 nM,6.41 nM,682,0.519 nM,"Cc1cnn2c(NCc3nc4c(F)c(F)ccc4[nH]3)nc(N3CCOCC3)nc12 [Example 392, N-[(4,5-difluoro-1H-benzimidazol-2-yl)methyl]-8-methyl-2-(morpholin-4-yl)pyrazolo[1,5-a][1,3,5]triazin-4-amine]"
14.7 nM,34 nM,11.1 nM,8 nM,800,0.884 nM,"Cc1cnn2c(NCc3nc4c(F)c(F)ccc4[nH]3)nc(N(C)CC(C)(C)O)nc12 [Example 395, 1-[(4-{[(4,5-difluoro-1H-benzimidazol-2-yl)methyl]amino}-8-methylpyrazolo[1,5-a][1,3,5]triazin-2-yl)(methyl)amino]-2-methylpropan-2-ol]"
,59.2 nM,67.4 nM,66.2 nM,221,10.4 nM,"CC(C)(O)COc1nc(NCc2nc3ccccc3[nH]2)n2ncc(Br)c2n1 [Example 398, 1-[(4-{[(1H-benzimidazol-2-yl)methyl]amino}-8-bromopyrazolo[1,5-a][1,3,5]triazin-2-yl)oxy]-2-methylpropan-2-ol]"
3.81 nM,8.56 nM,7.85 nM,7.03 nM,32,1.78 nM,"CN(CC(C)(C)O)c1nc(NCc2nc3c(F)c(F)ccc3[nH]2)n2ncc(C(F)(F)F)c2n1 [Example 402, 1-{[4-{[(4,5-difluoro-1H-benzimidazol-2-yl)methyl]amino}-8-(trifluoromethyl)pyrazolo[1,5-a][1,3,5]triazin-2-yl](methyl)amino}-2-methylpropan-2-ol]"
1.6 nM,2.28 nM,0.927 nM,2.31 nM,306,0.643 nM,"Fc1ccc2[nH]c(CNc3nc(N4CCN5CCC4CC5)nc4c(C(F)(F)F)cnn34)nc2c1F [Example 407, 2-(1,4-diazabicyclo[3.2.2]nonan-4-yl)-N-[(4,5-difluoro-1H-benzimidazol-2-yl)methyl]-8-(trifluoromethyl)pyrazolo[1,5-a][1,3,5]triazin-4-amine]"
3.42 nM,8.27 nM,3.07 nM,1.19 nM,1336,0.453 nM,"Fc1cccc2[nH]c(CNc3nc(N4CCN5CCC4CC5)nc4c(C(F)(F)F)cnn34)nc12 [Example 410, 2-(1,4-diazabicyclo[3.2.2]nonan-4-yl)-N-[(4-fluoro-1H-benzimidazol-2-yl)methyl]-8-(trifluoromethyl)pyrazolo[1,5-a][1,3,5]triazin-4-amine]"
,138 nM,79 nM,44.8 nM,>446,15.9 nM,"Brc1cnn2c(NCc3nc4ccccc4[nH]3)nc(OC3CCNCC3)nc12 [Example 411, N-[(1H-benzimidazol-2-yl)methyl]-8-bromo-2-[(piperidin-4-yl)oxy]pyrazolo[1,5-a][1,3,5]triazin-4-amine]"
82.7 nM,298 nM,69.9 nM,19.8 nM,>1012,6.91 nM,"Fc1ccc2[nH]c(CNc3nc(N4CCOCC4)nc4c(-c5nccs5)cnn34)nc2c1F [Example 413, N-[(4,5-difluoro-1H-benzimidazol-2-yl)methyl]-2-(morpholin-4-yl)-8-(1,3-thiazol-2-yl)pyrazolo [1,5-a][1,3,5]triazin-4-amine]"
,246 nM,64.4 nM,39 nM,>513,2.4 nM,"Cn1cc(-c2cnn3c(NCc4nc5c(F)c(F)ccc5[nH]4)nc(N4CCOCC4)nc23)cn1 [Example 418, N-[(4,5-difluoro-1H-benzimidazol-2-yl)methyl]-8-(1-methyl-1H-pyrazol-4-yl)-2-(morpholin-4-yl)pyrazolo[1,5-a][1,3,5]triazin-4-amine]"
,228 nM,79.5 nM,38.7 nM,>517,9.09 nM,"Cn1cc(-c2cnn3c(NCc4nc5cc(Cl)c(Cl)cc5[nH]4)nc(N4CCOCC4)nc23)cn1 [Example 419, N-[(5,6-dichloro-1H-benzimidazol-2-yl)methyl]-8-(1-methyl-1H-pyrazol-4-yl)-2-(morpholin-4-yl)pyrazolo[1,5-a][1,3,5]triazin-4-amine]"
,174 nM,47.4 nM,7.03 nM,>2847,6.19 nM,"CN1CCN(c2nc(NCc3nc4ccccc4[nH]3)n3ncc(C4CC4(F)F)c3n2)CC1 (centres unmarked) [Example 428, N-(1H-benzimidazol-2-ylmethyl)-8-(2,2-difluorocyclopropyl)-2-(4-methylpiperazin-1-yl)pyrazolo[1,5-a][1,3,5]triazin-4-amine]"
,416 nM,108 nM,14.7 nM,>1357,15.9 nM,"CN1CCN(c2nc(NCc3nc4ccccc4[nH]3)n3ncc(CC(F)(F)F)c3n2)CC1 [Example 436, N-[(1H-benzimidazol-2-yl)methyl]-2-(4-methylpiperazin-1-yl)-8-(2,2,2-trifluoroethyl)pyrazolo [1,5-a][1,3,5]triazin-4-amine]"
